The source of these data is the OligoGym collection.

These antisense oligonucleotides have a phosphorothioate backbone; sugars and methylation of C are not fully specified.
Note: test concentration or dose not given here.

One data set concerns the target IL15. Particulars: ASO.
AAAAGAAAGGGAGGGAAT: the remaining target (mRNA or protein) (fraction of control) is at least 1.
Same read-out and setting: the figure for AAGAAGTGTTGATGAACA is 0.83.
Same read-out and setting: the figure for ACACAAGTAGCACTGGAT is 0.43; for ACACCTACCTTTTAATAA it is at least 1; for ACTCTAGGCCCATAGCAA it is 0.58.
ACTGGGTATATTAGCTGC showed a remaining target (mRNA or protein) (fraction of control) of 0.58.
AGACATGAATGCCAGCTT: the remaining target (mRNA or protein) (fraction of control) amounted to 0.26.
On the same count and under the same terms, to AGCTGGCTATGGCAAGGG belongs 0.35; to AGGCATTAGTAGAGTAAA, 0.92.
For the sequence AGTGAAATAACTTGTAAC, the remaining target (mRNA or protein) (fraction of control) is at least 1.
ATAATGGTATGGAGGAAG: the remaining target (mRNA or protein) (fraction of control) was 0.6.
Same read-out and setting: the figure for ATATTACTCAATGACATT is at least 1.
Take ATGCATCACCTTTAATCT: the remaining target (mRNA or protein) (fraction of control) was 0.65.
In turn, ATTAGAAGACAAACTGTT came in with a remaining target (mRNA or protein) (fraction of control) of at least 1.
ATTTAGGTAAGCTACTCT: the remaining target (mRNA or protein) (fraction of control) was found to be 0.75.
Consider CATAGCAAGTACATGACA, for which the remaining target (mRNA or protein) (fraction of control) amounted to 0.46.
On the same count and under the same terms, to CCAATACCATGAAGGCAT belongs 0.25.
In turn, CCAGCTTCAGTTAGAAAA had a remaining target (mRNA or protein) (fraction of control) of at least 1.
In the case of CCATCCACGATGCCTCCT, the remaining target (mRNA or protein) (fraction of control) came out at 0.5.
As for CTAGGGTAAAGTATGATC, the remaining target (mRNA or protein) (fraction of control) was at least 1.
For the sequence CTGAACTGAGAGTCAGAT, the remaining target (mRNA or protein) (fraction of control) is 0.27.
The sequence CTGTTTTAGGAAGCCCTG yielded a remaining target (mRNA or protein) (fraction of control) of 0.58.
Sequence CTTTTAATAAGCACTCTA registered a remaining target (mRNA or protein) (fraction of control) of at least 1.
GCCCTGCACTGAAACAGC had a remaining target (mRNA or protein) (fraction of control) of 0.39.
GCCTCCTACAATACAATC yielded a remaining target (mRNA or protein) (fraction of control) of at least 1.
Consider GGGTGAACATCACTTTCC, for which the remaining target (mRNA or protein) (fraction of control) is 0.43.
Consider GTACATGACAGCCAGGAT, for which the remaining target (mRNA or protein) (fraction of control) came to 0.35.
GTATTGAAGAAGAGCTGG displayed a remaining target (mRNA or protein) (fraction of control) of at least 1.
Same read-out and setting: the figure for GTTAGGTGCTTTGGGCCA is 0.13.
Sequence TACATTCACCCAGTTGGC returned a remaining target (mRNA or protein) (fraction of control) of 0.24.
The sequence TACTTCTCAAATGTGGTT displayed a remaining target (mRNA or protein) (fraction of control) of at least 1.
Regarding TCACATTCTTTGCATCCA, the remaining target (mRNA or protein) (fraction of control) was found to be 0.31.
In turn, TCATCTTCTTGACAGAAA yielded a remaining target (mRNA or protein) (fraction of control) of at least 1.
TTAGCTGCATCCCAAAAT displayed a remaining target (mRNA or protein) (fraction of control) of 0.48.
In turn, TTAGTAGCATTTAGGTAA gave a remaining target (mRNA or protein) (fraction of control) of at least 1.
Regarding TTCAATAATAAATTAAAA, the remaining target (mRNA or protein) (fraction of control) is at least 1.
With TTCTCATTACTCAAAGCC, the remaining target (mRNA or protein) (fraction of control) is 0.87.
TTGTTATGTCTAAGCAGC: the remaining target (mRNA or protein) (fraction of control) was found to be 0.47.
With TTTAATCTTTACAATAAT, the remaining target (mRNA or protein) (fraction of control) is at least 1.
On the same count and under the same terms, the figure for TTTAGAAGTAAACACAAG is at least 1.

The next data set deals with IKBKB. The note with it: ASO.
Sequence CACAGGGTAGGTGTGGAT came in with a remaining target (mRNA or protein) (fraction of control) of 0.6.
In turn, CAGCTGTGCTCTTCTTCT gave a remaining target (mRNA or protein) (fraction of control) of 0.75.
In turn, CCCCACATGTCTGCGTTG came in with a remaining target (mRNA or protein) (fraction of control) of 0.12.
With CGTGAAACTCTGGTCTTG, the remaining target (mRNA or protein) (fraction of control) was 0.48.
As to CTCAGCTGGAAGAAGGCG, the remaining target (mRNA or protein) (fraction of control) was determined as 0.4.
CTCGAAGCTCTGAATTGC gave a remaining target (mRNA or protein) (fraction of control) of 0.48.
On the same count and under the same terms, to CTGAGTGGCAGGCTTATC belongs 0.28; to CTGGGATGCCCGTGTCCT, at least 1.
The sequence CTGTCCCAAGGCGCTCTT had a remaining target (mRNA or protein) (fraction of control) of 0.42.
Take CTTCGCTAACAACAATGT: the remaining target (mRNA or protein) (fraction of control) is at least 1.
In turn, CTTCTGCTTGCAAACCAC showed a remaining target (mRNA or protein) (fraction of control) of 0.82.
Sequence GACAACAGTCTTCTCATC had a remaining target (mRNA or protein) (fraction of control) of 0.77.
In the case of GAGGAGATTCATCATGGC, the remaining target (mRNA or protein) (fraction of control) amounted to 0.97.
The sequence GCCAGGACACTGTTAAGA yielded a remaining target (mRNA or protein) (fraction of control) of 0.43.
As for GCTCAGGTAAGCTGTTGG, the remaining target (mRNA or protein) (fraction of control) stood at 0.45.
GCTTTAGATCCCGATGGA registered a remaining target (mRNA or protein) (fraction of control) of 0.46.
The same measure, in the same setting: to GGAGAGGCAGCTGTTGTT belongs 0.43; to GGGAAGGTGACCAGCTCA, 0.3.
GGGCTCTTGAAGGATACA returned a remaining target (mRNA or protein) (fraction of control) of 0.39.
GGGCTTCCACTGACAGGA: the remaining target (mRNA or protein) (fraction of control) stood at 0.18.
GTCAGCCTTCTCATGATC returned a remaining target (mRNA or protein) (fraction of control) of at least 1.
GTTCCATTCAAGTCTTCG displayed a remaining target (mRNA or protein) (fraction of control) of 0.78.
For the sequence TCCTGTACAGCTCCCTTG, the remaining target (mRNA or protein) (fraction of control) is 0.13.
Sequence TGAGTCTCATAGGTGATT returned a remaining target (mRNA or protein) (fraction of control) of at least 1.
TGATGGCAATCTGCTCAC: the remaining target (mRNA or protein) (fraction of control) is at least 1.
Consider TGCACGGGCTGCCAGTTG, for which the remaining target (mRNA or protein) (fraction of control) came out at 0.46.
TGTAAGTCCACAATGTCG had a remaining target (mRNA or protein) (fraction of control) of 0.61.
Same read-out and setting: the figure for TGTATTAACCTCTGTTCT is at least 1; for TTAACTTGCCGTCTGAAA it is 0.8; for TTAAGATGTCATCCAGGG it is at least 1.
On the same count and under the same terms, the figure for TTCAAGATATGAACCAGC is 0.54; for TTGGCCTTGAGCTGCTGA it is 0.31; for TTTCACTTCGTTCTCCCG it is 0.33.

The target in a further data set is SUMO1. The note with it: ASO.
AAACAATAATGAATAATG came in with a remaining target (mRNA or protein) (fraction of control) of at least 1.
In turn, AAATCCTTCCCCTTCCCG had a remaining target (mRNA or protein) (fraction of control) of at least 1.
Turning to AACTTCCGCTACGCCTCG, the remaining target (mRNA or protein) (fraction of control) was at least 1.
In the case of AATTTCCAGTATTTATGC, the remaining target (mRNA or protein) (fraction of control) amounted to 0.45.
As for ACAATGAAAACAAACAAT, the remaining target (mRNA or protein) (fraction of control) is at least 1.
Turning to ACATGATGACGGTGGCTT, the remaining target (mRNA or protein) (fraction of control) is at least 1.
ACCACATTACAAAAGAAC: the remaining target (mRNA or protein) (fraction of control) was at least 1.
In turn, ACTGCTATCCTGTCCAAT had a remaining target (mRNA or protein) (fraction of control) of 0.67.
Same read-out and setting: the figure for ACTTCCATCTCCCACTGA is 0.47; for AGATGTGTTGTCATTTTC it is at least 1; for AGCAGTGTTCTGTTGTAT it is at least 1.
For AGGATTGAGGGAAAAGAA, the remaining target (mRNA or protein) (fraction of control) was at least 1.
